Results taken from ChEMBL document CHEMBL1201862, “PubChem BioAssay data set” (2004).
Values joined by “and” are separate entries in the source; they are usually repeats but may differ in a detail not shown here. Equal entries are not always repeated.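 Step 1: Grow cells in 96-well plates. Step 2: Expose to compound for 48 hours at 5 concentrations. Step 3: Interpolate endpoints linearly; if unreached, use highest concentration. GI50 = concentration required for 50% inhibition of growth.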 Active and inactive are the calls of the source. No stated cut-off is given here; in the data, active = GI50 up to about 1.1 µM and inactive = higher.

Assays:
Test in all cases: NCI tumour cell line growth inhibition, 48 h
SK-MEL-28 = test system: SK-MEL-28
ACHN = test system: ACHN
MDA-N = test system: MDA-N
SW-620 = test system: SW-620
KM12 = test system: KM12
UO-31 = test system: UO-31
RXF 393 = test system: RXF 393
NCI-H460 = test system: NCI-H460
Hs-578T = test system: Hs-578T
OVCAR-8 = test system: OVCAR-8
T47D = test system: T47D
IGROV-1 = test system: IGROV-1
OVCAR-3 = test system: OVCAR-3
COLO 205 = test system: COLO 205
HOP-92 = test system: HOP-92
HCT-116 = test system: HCT-116
NCI-H23 = test system: NCI-H23
M14 = test system: M14
786-0 = test system: 786-0
NCI-H522 = test system: NCI-H522

NCCCc1nonc1C(=O)O
GI50 (SK-MEL-28): > 100 µM (inactive) | GI50 (ACHN): > 100 µM (inactive) | GI50 (MDA-N): > 100 µM (inactive) | GI50 (SW-620): > 100 µM (inactive) | GI50 (KM12): > 100 µM (inactive) | GI50 (UO-31): > 100 µM (inactive) | GI50 (RXF 393): > 100 µM (inactive) | GI50 (NCI-H460): > 100 µM (inactive) | GI50 (Hs-578T): > 100 µM (inactive) | GI50 (OVCAR-8): > 100 µM (inactive) | GI50 (T47D): > 100 µM (inactive) | GI50 (IGROV-1): > 100 µM (inactive) | GI50 (OVCAR-3): > 100 µM (inactive) | GI50 (COLO 205): > 100 µM (inactive) | GI50 (HOP-92): > 100 µM (inactive) | GI50 (HCT-116): > 100 µM (inactive) | GI50 (NCI-H23): > 100 µM (inactive) | GI50 (M14): > 100 µM (inactive) | GI50 (786-0): > 100 µM (inactive)

CC(=O)N1C(C(=O)NNc2ccccc2)CSC1c1ccccc1 (stereo not given)
GI50 (NCI-H522): 0.471 µM (active) | GI50 (ACHN): 4.47 µM (inactive) | GI50 (MDA-N): > 100 µM (inactive) | GI50 (SW-620): > 100 µM (inactive) | GI50 (KM12): 71.3 µM (inactive) | GI50 (UO-31): 70.8 µM (inactive) | GI50 (NCI-H460): > 100 µM (inactive) | GI50 (Hs-578T): > 100 µM (inactive) | GI50 (OVCAR-8): > 100 µM (inactive) | GI50 (T47D): 69.7 µM (inactive) | GI50 (IGROV-1): 36.6 µM (inactive) | GI50 (OVCAR-3): 58.2 µM (inactive) | GI50 (COLO 205): 64.9 µM (inactive) | GI50 (HOP-92): > 100 µM (inactive) | GI50 (HCT-116): > 100 µM (inactive) | GI50 (NCI-H23): > 100 µM (inactive) | GI50 (M14): 16.7 µM (inactive) | GI50 (786-0): > 100 µM (inactive)

C=C(C(=O)O)[C@@H]1C[C@@H]2O[C@H]1[C@@H](O)[C@@H](C)CCCC(C)=CCC[C@@]2(C)O
GI50 (SK-MEL-28): > 100 µM (inactive) | GI50 (ACHN): 90.6 µM (inactive) | GI50 (MDA-N): 59.4 µM (inactive) and 71.1 µM (inactive) | GI50 (SW-620): 39.8 µM (inactive) and 58.1 µM (inactive) | GI50 (KM12): > 100 µM (inactive) | GI50 (UO-31): > 100 µM (inactive) and 69 µM (inactive) | GI50 (RXF 393): > 100 µM (inactive) and > 89.1 µM (inactive) | GI50 (NCI-H460): > 100 µM (inactive) | GI50 (Hs-578T): > 100 µM (inactive) | GI50 (OVCAR-8): > 100 µM (inactive) | GI50 (T47D): > 100 µM (inactive) and > 84.9 µM (inactive) | GI50 (IGROV-1): 92.9 µM (inactive) and > 75 µM (inactive) | GI50 (OVCAR-3): > 100 µM (inactive) and > 88.7 µM (inactive) | GI50 (COLO 205): > 100 µM (inactive) and 72.6 µM (inactive) | GI50 (HOP-92): > 100 µM (inactive) and 99.8 µM (inactive) | GI50 (HCT-116): 64.1 µM (inactive) and > 83.4 µM (inactive) | GI50 (NCI-H23): > 100 µM (inactive) | GI50 (M14): > 100 µM (inactive) and > 77.4 µM (inactive) | GI50 (786-0): 56.6 µM (inactive) and > 69.5 µM (inactive)

CC[C@@H]1C[C@@H](O)[C@@H]2[C@H](O)[C@H](O)CN2C1
GI50 (SK-MEL-28): > 100 µM (inactive) | GI50 (NCI-H522): > 100 µM (inactive) | GI50 (ACHN): > 100 µM (inactive) | GI50 (MDA-N): > 100 µM (inactive) | GI50 (SW-620): > 100 µM (inactive) | GI50 (KM12): > 100 µM (inactive) | GI50 (UO-31): > 100 µM (inactive) | GI50 (NCI-H460): > 100 µM (inactive) | GI50 (Hs-578T): > 100 µM (inactive) | GI50 (OVCAR-8): > 100 µM (inactive) | GI50 (T47D): > 100 µM (inactive) | GI50 (IGROV-1): > 100 µM (inactive) | GI50 (OVCAR-3): > 100 µM (inactive) | GI50 (COLO 205): > 100 µM (inactive) | GI50 (HOP-92): > 100 µM (inactive) | GI50 (HCT-116): > 100 µM (inactive) | GI50 (NCI-H23): > 100 µM (inactive) | GI50 (M14): > 100 µM (inactive) | GI50 (786-0): > 100 µM (inactive)

S=C(Nc1ccc(/N=N/c2ccccc2)cc1)SCc1ccccc1
GI50 (SK-MEL-28): 18.1 µM (inactive) | GI50 (NCI-H522): 16.9 µM (inactive) | GI50 (ACHN): 17.5 µM (inactive) | GI50 (SW-620): 20.6 µM (inactive) | GI50 (KM12): 16.2 µM (inactive) | GI50 (UO-31): 18.8 µM (inactive) | GI50 (RXF 393): 19.6 µM (inactive) | GI50 (NCI-H460): 20.2 µM (inactive) | GI50 (Hs-578T): 22.2 µM (inactive) | GI50 (OVCAR-8): 7.35 µM (inactive) | GI50 (T47D): 28.3 µM (inactive) | GI50 (IGROV-1): 17.7 µM (inactive) | GI50 (OVCAR-3): 15.6 µM (inactive) | GI50 (COLO 205): 23.1 µM (inactive) | GI50 (HOP-92): 13.4 µM (inactive) | GI50 (HCT-116): 14.8 µM (inactive) | GI50 (NCI-H23): 16.4 µM (inactive) | GI50 (M14): 17.3 µM (inactive) | GI50 (786-0): 17.8 µM (inactive)

COC(=O)C1=C(C(=O)NNc2ccccc2)N(c2cccnc2Cl)C(c2ccccc2)=CC1c1ccccc1 (stereo not given)
GI50 (SK-MEL-28): 48.2 µM (inactive) | GI50 (NCI-H522): > 100 µM (inactive) | GI50 (ACHN): 76.7 µM (inactive) | GI50 (MDA-N): 20.5 µM (inactive) | GI50 (SW-620): 31.6 µM (inactive) | GI50 (KM12): 29.6 µM (inactive) | GI50 (NCI-H460): 65.2 µM (inactive) | GI50 (Hs-578T): > 100 µM (inactive) | GI50 (OVCAR-8): > 100 µM (inactive) | GI50 (T47D): 26.1 µM (inactive) | GI50 (IGROV-1): > 100 µM (inactive) | GI50 (OVCAR-3): 31.7 µM (inactive) | GI50 (COLO 205): 66.7 µM (inactive) | GI50 (HCT-116): 23.7 µM (inactive) | GI50 (NCI-H23): 73.8 µM (inactive) | GI50 (M14): 33.3 µM (inactive) | GI50 (786-0): 86.3 µM (inactive)

CC(=O)OCC1OC(N2C(=O)CC(N)=Nc3ccccc32)C(OC(C)=O)C(OC(C)=O)C1OC(C)=O (stereo not given)
GI50 (SK-MEL-28): 38.4 µM (inactive) | GI50 (ACHN): 66.5 µM (inactive) | GI50 (MDA-N): 32.7 µM (inactive) | GI50 (SW-620): 87.5 µM (inactive) | GI50 (KM12): 45.2 µM (inactive) | GI50 (UO-31): > 100 µM (inactive) | GI50 (RXF 393): 23.1 µM (inactive) | GI50 (NCI-H460): 55.5 µM (inactive) | GI50 (Hs-578T): > 100 µM (inactive) | GI50 (OVCAR-8): 32.4 µM (inactive) | GI50 (T47D): 20.5 µM (inactive) | GI50 (IGROV-1): 45.1 µM (inactive) | GI50 (OVCAR-3): 52.6 µM (inactive) | GI50 (COLO 205): 15.1 µM (inactive) | GI50 (HOP-92): > 100 µM (inactive) | GI50 (HCT-116): 81.8 µM (inactive) | GI50 (NCI-H23): 43.2 µM (inactive) | GI50 (M14): 38.6 µM (inactive) | GI50 (786-0): > 100 µM (inactive)

CCOC(=O)C1Cc2ccc(C)cc2C1=O (stereo not given)
GI50 (SK-MEL-28): 23.8 µM (inactive) | GI50 (ACHN): > 100 µM (inactive) | GI50 (MDA-N): > 100 µM (inactive) | GI50 (SW-620): 88.1 µM (inactive) | GI50 (KM12): > 100 µM (inactive) | GI50 (UO-31): 48.6 µM (inactive) | GI50 (NCI-H460): > 100 µM (inactive) | GI50 (Hs-578T): > 100 µM (inactive) | GI50 (OVCAR-8): > 100 µM (inactive) | GI50 (T47D): > 100 µM (inactive) | GI50 (IGROV-1): 70.6 µM (inactive) | GI50 (OVCAR-3): 46.9 µM (inactive) | GI50 (COLO 205): > 100 µM (inactive) | GI50 (HOP-92): > 100 µM (inactive) | GI50 (HCT-116): > 100 µM (inactive) | GI50 (NCI-H23): 55.6 µM (inactive) | GI50 (M14): > 100 µM (inactive) | GI50 (786-0): > 100 µM (inactive)

CN1C(=O)CC2CCC(=O)N2c2cccnc21 (stereo not given)
GI50 (SK-MEL-28): > 100 µM (inactive) | GI50 (NCI-H522): > 100 µM (inactive) | GI50 (ACHN): > 100 µM (inactive) | GI50 (MDA-N): > 100 µM (inactive) | GI50 (SW-620): > 100 µM (inactive) | GI50 (KM12): > 100 µM (inactive) | GI50 (UO-31): > 100 µM (inactive) | GI50 (NCI-H460): > 100 µM (inactive) | GI50 (Hs-578T): > 100 µM (inactive) | GI50 (OVCAR-8): > 100 µM (inactive) | GI50 (T47D): > 100 µM (inactive) | GI50 (IGROV-1): > 100 µM (inactive) | GI50 (OVCAR-3): > 100 µM (inactive) | GI50 (COLO 205): > 100 µM (inactive) | GI50 (HCT-116): > 100 µM (inactive) | GI50 (NCI-H23): > 100 µM (inactive) | GI50 (M14): > 100 µM (inactive) | GI50 (786-0): > 100 µM (inactive)

CC(=O)C1C(=O)C(=O)N(c2cccc([N+](=O)[O-])c2)C1=O (stereo not given)
GI50 (SK-MEL-28): > 100 µM (inactive) | GI50 (NCI-H522): > 100 µM (inactive) | GI50 (ACHN): > 100 µM (inactive) | GI50 (MDA-N): > 100 µM (inactive) | GI50 (SW-620): > 100 µM (inactive) | GI50 (KM12): > 100 µM (inactive) | GI50 (UO-31): > 100 µM (inactive) | GI50 (RXF 393): > 100 µM (inactive) | GI50 (NCI-H460): > 100 µM (inactive) | GI50 (Hs-578T): > 100 µM (inactive) | GI50 (OVCAR-8): > 100 µM (inactive) | GI50 (IGROV-1): > 100 µM (inactive) | GI50 (OVCAR-3): > 100 µM (inactive) | GI50 (COLO 205): > 100 µM (inactive) | GI50 (HOP-92): > 100 µM (inactive) | GI50 (HCT-116): > 100 µM (inactive) | GI50 (NCI-H23): > 100 µM (inactive) | GI50 (M14): > 100 µM (inactive) | GI50 (786-0): > 100 µM (inactive)
